Measured values published in US8962621B2 (Shanghai Institute of Pharmaceutical Industry, priority 2010, dated 2015).
Where a name gives a salt, the structure may show the parent alone. Values belong to the compound of their own block, whether it stands above or below them.

Tests used:
[1] = molecular target: 5-HT Transporter (hSERT) (Homo sapiens, UniProt P31645); experiment: Inhibition of [3H]-5-HT reuptake in HEK 293 cells stably expressing hSERT; settings: for inhibition at 10 µM: HEK293, read-out: 5-HT Reuptake Inhibition; for 5-HT Reuptake Inhibition: 10 μmol/L final concentration (b487 prints 0.1 mmol/L), HEK 293 hSERT cells, [3H]-5-HT;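 for all read-outs here: compound preincubated 10 min at 30 °C, then 10 min uptake, filter-bound radioactivity counted by scintillation, inhibition relative to total (blank) minus non-specific (positive control) uptake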
Chain of 5-HT Transporter (hSERT) (P31645 whole entry): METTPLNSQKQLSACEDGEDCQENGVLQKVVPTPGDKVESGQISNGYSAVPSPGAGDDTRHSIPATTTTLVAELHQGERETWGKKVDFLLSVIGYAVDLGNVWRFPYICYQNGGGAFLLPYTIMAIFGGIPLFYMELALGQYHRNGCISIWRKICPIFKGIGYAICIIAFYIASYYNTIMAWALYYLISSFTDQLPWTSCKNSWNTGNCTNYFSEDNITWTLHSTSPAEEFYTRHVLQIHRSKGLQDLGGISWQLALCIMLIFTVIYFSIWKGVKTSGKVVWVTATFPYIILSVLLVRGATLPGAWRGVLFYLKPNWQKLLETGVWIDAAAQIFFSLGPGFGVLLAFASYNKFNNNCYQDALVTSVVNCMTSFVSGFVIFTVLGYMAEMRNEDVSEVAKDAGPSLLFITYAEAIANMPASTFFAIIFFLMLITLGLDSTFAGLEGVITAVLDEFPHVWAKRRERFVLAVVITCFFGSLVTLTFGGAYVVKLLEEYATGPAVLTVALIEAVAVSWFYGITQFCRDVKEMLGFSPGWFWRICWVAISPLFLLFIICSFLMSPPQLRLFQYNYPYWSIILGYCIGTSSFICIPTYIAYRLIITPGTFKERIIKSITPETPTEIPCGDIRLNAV

[2] = molecular target: DA Transporter (hDAT) (Homo sapiens, UniProt Q01959); experiment: Inhibition of [3H]-DA reuptake in HEK 293 cells stably expressing hDAT; settings: for inhibition at 10 µM: HEK293, read-out: DA Reuptake Inhibition; for DA Reuptake Inhibition: 10 μmol/L final concentration (b487 prints 0.1 mmol/L), HEK 293 hDAT cells, [3H]-DA
Chain of DA Transporter (hDAT) (Q01959 whole entry): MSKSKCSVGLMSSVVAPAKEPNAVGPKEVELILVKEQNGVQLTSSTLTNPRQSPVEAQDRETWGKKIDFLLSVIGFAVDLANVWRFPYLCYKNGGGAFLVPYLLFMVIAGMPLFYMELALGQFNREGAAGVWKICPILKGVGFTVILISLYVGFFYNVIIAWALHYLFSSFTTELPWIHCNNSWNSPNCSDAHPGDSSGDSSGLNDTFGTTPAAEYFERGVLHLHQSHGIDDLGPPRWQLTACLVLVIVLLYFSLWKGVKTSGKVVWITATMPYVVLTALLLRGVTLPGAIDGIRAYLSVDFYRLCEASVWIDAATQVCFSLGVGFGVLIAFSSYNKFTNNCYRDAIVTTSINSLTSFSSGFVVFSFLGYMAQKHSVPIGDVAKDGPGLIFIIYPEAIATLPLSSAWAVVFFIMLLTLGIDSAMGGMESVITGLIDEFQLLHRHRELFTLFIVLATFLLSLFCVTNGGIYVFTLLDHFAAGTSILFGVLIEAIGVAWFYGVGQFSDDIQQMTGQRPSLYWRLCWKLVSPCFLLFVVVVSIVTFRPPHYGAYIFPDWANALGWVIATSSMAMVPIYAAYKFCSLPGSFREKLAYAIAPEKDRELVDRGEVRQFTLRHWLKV

[3] = tested on: male ICR mice; experiment: Mice tail suspension test; format: in vivo; settings: for IT (sec), immobility time: 20.0 mg/kg single intragastric administration, 1 h before test, 4 min observation, n=12; for Improvement (%): 20.0 mg/kg single oral administration, versus blank control IT; for effect on immobility time in the tail suspension test (in words): 20 mg/kg, efficacy similar to Venlafaxine
Description: Through intragastric administration, 10 mL·kg^−1 of each sample (physiological saline for the blank control group) is administrated. After 1 h of the treatment, the mouse is held with a medical tape at a position around 2 cm from the tip of its tail and hung upside-down in the suspension cage with its head 5 cm away from the bottom of the cage. The observation starts right after the mouse is suspended for 2 min and continues for 4 min. The time during which the mouse is immobile (no struggling or only tiny movements of its body/limbs) in this 4 min is accumulated (IT, immobility time). The percentage of the improvement is calculated according to the equation: Improvement %=[IT (blank control group)−IT (compound treatment group)]/IT (blank control group)×100%

[4] = molecular target: NA Transporter (hNAT) (Homo sapiens, UniProt P23975); experiment: Inhibition of [3H]-NA reuptake in HEK 293 cells stably expressing hNAT; settings: for NA Reuptake Inhibition: 10 μmol/L final concentration (b487 prints 0.1 mmol/L), HEK 293 hNAT cells, [3H]-NA
Chain of NA Transporter (hNAT) (P23975 whole entry): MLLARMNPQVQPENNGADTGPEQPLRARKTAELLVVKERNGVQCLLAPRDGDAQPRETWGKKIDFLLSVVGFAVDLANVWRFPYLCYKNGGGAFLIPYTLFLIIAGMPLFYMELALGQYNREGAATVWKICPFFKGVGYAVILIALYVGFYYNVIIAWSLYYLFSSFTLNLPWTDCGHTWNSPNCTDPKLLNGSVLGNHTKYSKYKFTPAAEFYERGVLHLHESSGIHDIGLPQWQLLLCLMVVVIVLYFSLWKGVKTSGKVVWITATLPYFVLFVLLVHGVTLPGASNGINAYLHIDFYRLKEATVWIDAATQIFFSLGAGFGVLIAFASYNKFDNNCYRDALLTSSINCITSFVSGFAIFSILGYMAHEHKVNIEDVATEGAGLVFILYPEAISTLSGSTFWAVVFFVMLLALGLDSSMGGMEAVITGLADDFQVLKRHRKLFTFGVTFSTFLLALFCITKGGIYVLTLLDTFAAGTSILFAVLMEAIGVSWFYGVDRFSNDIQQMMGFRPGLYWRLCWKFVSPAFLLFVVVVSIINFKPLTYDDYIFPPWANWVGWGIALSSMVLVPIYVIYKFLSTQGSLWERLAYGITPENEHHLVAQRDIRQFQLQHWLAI

[5] = tested on: male Kunming mice; experiment: Mice forced swimming test; format: in vivo; settings: for effect in the forced swimming test (in words): 20 mg/kg; for IT (sec), immobility time: 20.0 mg/kg single intragastric administration, 1 h before test, last 4 min of 6 min, n=12
Description: Through intragastric administration, 10 mL·kg^−1 of each sample (physiological saline for the blank control group) is administrated. The mice are pre-screened for swimming one day before the actual test. The mouse is placed into water (25° C., 10 cm deep) in a glass tank (height 20 cm, diameter 14 cm) and forced to swim for 6 min. Those who stop swimming at around 70-160 s are chosen for the actual test which starts 24 h later. After 1 h of the administration, the forced swimming test is performed by placing the animal into the above-mentioned environment to swim for 6 min. The accumulative immobility time for the last 4 min is recorded. Data is statistically analyzed with t-test.

SMILES: CN(C)CCC(c1csc2ccccc12)N1CCCC1 (centres unmarked) (as salt: hydrochloride) [VI-13, N,N-dimethyl-3-(benzothiophen-3-yl)-3-(pyrrolidin-1-yl)-propylamine]
melting point: 259.7 to 262.2 °C

SMILES: CNCCC(c1csc2ccccc12)N1CCCC1 (centres unmarked) (as salt: hydrochloride) [VI-15, N-methyl-3-(benzothiophen-3-yl)-3-(pyrrolidin-1-yl)-propylamine]
melting point: 189.3 to 192 °C

SMILES: CNCCC(c1cc2ccccc2s1)N1CCCC1 (centres unmarked) (as salt: hydrochloride) [VI-21, N-methyl-3-(benzothiophen-2-yl)-3-(pyrrolidin-1-yl)-propylamine]
melting point: 175 to 176.8 °C

SMILES: COc1ccc2cc(C(CCN(C)C)N3CCCC3)ccc2c1Cl (centres unmarked) (as salt: hydrochloride) [VI-36, N,N-dimethyl-3-(5-chloro-6-methoxynaphthalen-2-yl)-3-(pyrrolidin-1-yl)-propylamine]
melting point: 215.2 to 216.9 °C

SMILES: Clc1ccc([C@]23CNC[C@H]2C3)cc1Cl [DOV-21947, reference compound]
inhibition at 10 µM [1]: 100% | inhibition at 10 µM [2]: 100%

SMILES: CN(C)CCC(c1ccc(Cl)c(Cl)c1)N1CCOCC1 (centres unmarked) [VI-4, N,N-dimethyl-3-(3,4-dichlorophenyl)-3-morpholinyl-propylamine]
inhibition effect towards the reuptake of 5-HT (in words) [1]: relatively strong inhibition effect | 5-HT Reuptake Inhibition [1]: 101.9% | IT (sec), immobility time [3]: 38.65 ± 16.32 s | Improvement (%) [3]: 61.04% | effect on immobility time in the tail suspension test (in words) [3]: significant reduction in the immobility time | DA Reuptake Inhibition [2]: 89.9% | NA Reuptake Inhibition [4]: 93.6% | effect in the forced swimming test (in words) [5]: significant reduction in the immobility time | IT (sec), immobility time [5]: 52.8 ± 32.0 s

SMILES: Clc1ccc(C(CCN2CCOCC2)N2CCCC2)cc1Cl (centres unmarked) [VI-6]
5-HT Reuptake Inhibition [1]: 106.3% | IT (sec), immobility time [3]: 25.68 ± 14.25 s | Improvement (%) [3]: 74.11% | effect on immobility time in the tail suspension test (in words) [3]: significant reduction in the immobility time | DA Reuptake Inhibition [2]: 106.4% | NA Reuptake Inhibition [4]: 101.4% | effect in the forced swimming test (in words) [5]: significant difference from that of the blank control | IT (sec), immobility time [5]: 79.3 ± 53.1 s

SMILES: CN(C)CCC(c1csc2ccccc12)N1CCCC1 (centres unmarked) [VI-13, N,N-dimethyl-3-(benzothiophen-3-yl)-3-(pyrrolidin-1-yl)-propylamine]
inhibition at 10 µM [1]: 96.6% | IT (sec), immobility time [3]: 38.29 ± 23.76 s | Improvement (%) [3]: 61.40% | effect on immobility time in the tail suspension test (in words) [3]: significant reduction in the immobility time | inhibition at 10 µM [2]: 96.9% | inhibition at 10 µM ([4]; HEK293, read-out: NA Reuptake Inhibition): 98.8% | effect in the forced swimming test (in words) [5]: significant reduction in the immobility time | IT (sec), immobility time [5]: 44.9 ± 53.7 s

SMILES: CN(C)CCC(c1cc2ccccc2s1)N1CCOCC1 (centres unmarked) [VI-25, N,N-dimethyl-3-(benzothiophen-2-yl)-3-morpholinyl-propylamine]
5-HT Reuptake Inhibition [1]: 91.5% | DA Reuptake Inhibition [2]: 39.2% | NA Reuptake Inhibition [4]: 96.8%

SMILES: COc1ccc2cc(C(CCN(C)C)N3CCOCC3)ccc2c1Cl (centres unmarked) [VI-34, N,N-dimethyl-3-(5-chloro-6-methoxynaphthalen-2-yl)-3-morpholinyl-propylamine]
5-HT Reuptake Inhibition [1]: 47.3% | DA Reuptake Inhibition [2]: 2.48% | NA Reuptake Inhibition [4]: 49.5%

SMILES: COc1ccc(C(CCN(C)C)N2CCOCC2)cc1 (centres unmarked) [VI-38, N,N-dimethyl-3-(4-methoxyphenyl)-3-morpholinyl-propylamine]
5-HT Reuptake Inhibition [1]: 25.9% | DA Reuptake Inhibition [2]: 23.0% | NA Reuptake Inhibition [4]: 29.3%

SMILES: CN(C)CCCC(c1ccc(Cl)c(Cl)c1)N1CCOCC1 (centres unmarked) [VI-44, N,N-dimethyl-4-(3,4-dichlorophenyl)-4-morpholinyl-butylamine]
5-HT Reuptake Inhibition [1]: 45.8% | DA Reuptake Inhibition [2]: 67.0% | NA Reuptake Inhibition [4]: 54.6%

SMILES: CN(C)CCC(c1ccc(F)cc1F)N1CCOCC1 (centres unmarked) [VI-48, N,N-dimethyl-3-(2,4-difluorophenyl)-3-morpholinyl-propylamine]
5-HT Reuptake Inhibition [1]: 65.0% | DA Reuptake Inhibition [2]: 45.6% | NA Reuptake Inhibition [4]: 58.0%

SMILES: COc1ccc(C(CCN(C)Cc2ccccc2)N2CCOCC2)cc1OC (centres unmarked) [VI-56, N-methyl-N-benzyl-3-(3,4-dimethoxyphenyl)-3-morpholinyl-propylamine]
5-HT Reuptake Inhibition [1]: 78.0% | DA Reuptake Inhibition [2]: 59.2% | NA Reuptake Inhibition [4]: 68.7%

SMILES: CN(C)CCC(c1cccs1)N1CCOCC1 (centres unmarked) [VI-61, N,N-dimethyl-3-(thien-2-yl)-3-morpholinyl-propylamine]
5-HT Reuptake Inhibition [1]: 78.9% | DA Reuptake Inhibition [2]: 65.6% | NA Reuptake Inhibition [4]: 75.0%

More lines, now with the values ahead:

melting point: 193.2 to 195 °C
SMILES: CCCN(C)C1(c2csc3ccccc23)CCCNC1 (centres unmarked) (as salt: hydrochloride)

melting point: 189.3 to 192.4 °C
SMILES: CCCN(C)C1(c2ccc3c(c2)OCO3)CCCNC1 (centres unmarked) (as salt: hydrochloride)

melting point: 195.2 to 197.8 °C
SMILES: CCCN(C)C1(c2ccc(OC)c(OC)c2)CCCNC1 (centres unmarked) (as salt: hydrochloride)

melting point: 257.3 to 258.9 °C
SMILES: CN(C)CCC(c1ccc(Cl)c(Cl)c1)N1CCNCC1 (centres unmarked) (as salt: hydrochloride) [VI-3, N,N-dimethyl-3-(3,4-dichlorophenyl)-3-(piperazin-1-yl)-propylamine]

melting point: 169.1 to 171.8 °C
SMILES: CN(C)CCCC1(c2ccc(Cl)c(Cl)c2)CCCNC1 (centres unmarked) (as salt: hydrochloride) [VI-7, N,N-dimethyl-3-(3,4-dichlorophenyl)-3-piperidyl-propylamine]

melting point: 297 to 299.5 °C
SMILES: CN(CCC(c1csc2ccccc12)N1CCCC1)Cc1ccccc1 (centres unmarked) (as salt: hydrochloride) [VI-14, N-methyl-N-benzyl-3-(benzothiophen-3-yl)-3-(pyrrolidin-1-yl)-propylamine]

melting point: 312 to 313.5 °C
SMILES: CN(CCCC1(c2csc3ccccc23)CCCNC1)Cc1ccccc1 (centres unmarked) (as salt: hydrochloride) [VI-17, N-methyl-N-benzyl-3-(benzothiophen-3-yl)-3-piperidyl-propylamine]

melting point: 255 to 257.2 °C
SMILES: CN(C)CCC(c1cc2ccccc2s1)N1CCCC1 (centres unmarked) (as salt: hydrochloride) [VI-19, N,N-dimethyl-3-(benzothiophen-2-yl)-3-(pyrrolidin-1-yl)-propylamine]

melting point: 287.5 to 289.2 °C
SMILES: CN(CCC(c1cc2ccccc2s1)N1CCCC1)Cc1ccccc1 (centres unmarked) (as salt: hydrochloride) [VI-20, N-methyl-N-benzyl-3-(benzothiophen-2-yl)-3-(pyrrolidin-1-yl)-propylamine]

melting point: 298.5 to 300 °C
SMILES: CN(CCCC1(c2cc3ccccc3s2)CCCNC1)Cc1ccccc1 (centres unmarked) (as salt: hydrochloride) [VI-23, N-methyl-N-benzyl-3-(benzothiophen-2-yl)-3-piperidyl-propylamine]

melting point: 185.3 to 187 °C
SMILES: CCCN(C)C1(c2cc3ccccc3s2)CCCNC1 (centres unmarked) (as salt: hydrochloride) [VI-24, N-methyl-3-(benzothiophen-2-yl)-3-piperidyl-propylamine]

melting point: 175.2 to 178.4 °C
SMILES: COc1ccc(C(CCN(C)C)N2CCCC2)cc1 (centres unmarked) (as salt: hydrochloride) [VI-37, N,N-dimethyl-3-(4-methoxyphenyl)-3-(pyrrolidin-1-yl)-propylamine]

melting point: 245.6 to 248.2 °C
SMILES: CN(C)CCCC(c1ccc(Cl)c(Cl)c1)N1CCNCC1 (centres unmarked) (as salt: hydrochloride) [VI-45, N,N-dimethyl-4-(3,4-dichlorophenyl)-4-(piperazin-1-yl)-butylamine]

melting point: 249.6 to 252.2 °C
SMILES: CN(C)CCCC(c1csc2ccccc12)N1CCNCC1 (centres unmarked) (as salt: hydrochloride) [VI-47, N,N-dimethyl-4-(benzothiophen-3-yl)-4-(piperazin-1-yl)-butylamine]

melting point: 285.6 to 288.9 °C
SMILES: CN(CCCC1(c2ccc3c(c2)OCO3)CCCNC1)Cc1ccccc1 (centres unmarked) (as salt: hydrochloride) [VI-53, N-methyl-N-benzyl-3-(1,2-methylenedioxybenzen-4-yl)-3-piperidyl-propylamine]

melting point: 256.6 to 258.9 °C
SMILES: COc1ccc(C2(CCCN(C)Cc3ccccc3)CCCNC2)cc1OC (centres unmarked) (as salt: hydrochloride) [VI-59, N-methyl-N-benzyl-3-(3,4-dimethoxyphenyl)-3-piperidyl-propylamine]
